Source: patent US20030143199A1, “Use of STAT-6 inhibitors as therapeutic agents” (priority 2001, published 2003)
Entries after “also recorded” stand apart in the source; their conditions may differ.

What was measured:
[1] = test system: Chronic lymphocytic leukemia [CLL] cells; assay: Protection against spontaneous apoptosis and fludarabine-induced apoptosis (PI negative / DiOC6 high cells by FACS); assay type: cell-based; conditions: one micromolar, 3 days culture, FIG. 2
Method: Chronic lymphocytic leukemia [CLL] cells were cultured for 3 days as described in Example 2. Some of the cultures were supplemented with one micromolar of PFT-open or PFT-closed, as indicated. In the experiment shown in the bottom panel of FIG. 2, some of the cultures also contained the cytotoxic adenine nucleoside analog fludarabine [abbreviated F-AraA]. Fludarabine is the first line treatment for CLL, and the toxicity of the drug is dependent upon the p53 pathway. To assess healthy, viable cells, staining was done with both PI, as indicated in Example 2, and with the mitochondrial dye DiOC6. Cells that were both PI negative and DIOC6 high were enumerated by FACS.

[2] = Cyclization of PFT-α to IBT in DMSO/water dilutions, reversed phase HPLC over time; assay type: physicochemical; conditions: for % cyclized to IBT: DMSO stock diluted with water, 25° C., reversed phase HPLC
Method: The preparation of PFT-α was accomplished as shown in Scheme 1 by reacting 4-methyl-2-bromoacetophenone with 2-amino-4,5,6,7-tetrahydrobenzothiazole. Upon recrystallization of the PFT-α from isopropyl alcohol, it was noticed that PFT-α readily ring-closed completely to the imidazo[2, 1-b]benzothiazole (IBT). Therefore, a subsequent investigation was undertaken to study the propensity of PFT-α to ring-close in protic solvents. […] Thus, PFT-α was dissolved in DMSO and water dilutions were made from this stock.

[3] = test system: malignant lymphocytes from two patients with chronic lymphocytic leukemia [CLL]; assay: Effect of the p53 inhibitory compounds on B-CLL viability (PI exclusion by FACS, MTT), 3 days culture; assay type: cell-based; conditions: FIG. 1
Description: The malignant lymphocytes from two patients with chronic lymphocytic leukemia [CLL] were isolated by ficoll-hypaque sedimentation and suspended at a density of 1 million cells per milliliter in RPMI 1640 medium supplemented with 10% fetal bovine serum. Two hundred microliter aliquots of cells were dispersed in the wells of culture plates containing the indicated final concentrations of either PFT-α (“PFT-open”) or IBT (PFT-closed). After 3 days culture, viable cells were enumerated by fluorescence-activated cell sorting [FACS] after staining with propidium iodide [PI]. Viable cells excluded the dye [open circles]. In addition, cell metabolism was assessed by the ability of the cells to […] the tetrazolium dye MTT [closed squares].

[4] = test system: BEAS-2B human airway epithelial cells; assay: Viability of treated cells at end of incubation in the 12/15-lipoxygenase promoter/luciferase STAT-6 reporter assay; assay type: cell-based; conditions: 10 μM for 1 hour, then IL-4 10 ng/ml, 16 hours
Method: The BEAS-2B human airway epithelial cells were transiently transfected with the human 12/15-lipoxygenase promoter/luciferase reporter gene. Cells were then incubated with the IBT analogs (FIG. 5) at 10 μM for 1 hour, followed by IL-4 (10 ng/ml). After 16 hours, luciferase was measured using a chemiluminometer. The STAT-6 induction was normalized using the B-gal results as “background.” The viability of the treated cells was visually verified at the end of the incubation, and found to be >95%. Results shown in FIG. 3 are the mean of duplicate measurements.
Human airway epithelial cells, BEAS-2B, were transiently transfected with the human 12/15-lipoxygenase promoter/luciferase reporter plasmid with and without a STAT6 expressing plasmid. The cells were incubated with 10 μM of STAT-6 (Control Sample 1); 10 μM STAT-6 (Sample 2); a mixture of STAT-6 and compound 8 (Sample 3); and compound 8 alone (Sample 4); for 1 hour. This was followed treatment with 10 ng/mL of IL-4 (except control). After 16 hours, luciferase was measured using a chemiluminometer. The STAT-6 induction was normalized using the β-gal results as “background”. The viability of the treated cells was visually verified at the end of the incubation, and found to be>95%. The results are illustrated in FIG. 7.

[5] = test system: Human Hodgkin's lymphoma cells L1236; assay: Effect of IBT and interferon on Hodgkin's lymphoma cells (CellTiter 96 MTS viability); assay type: cell-based; conditions: 3, 5 or 7 days; IBT at doses up to 10 μM; FIG. 12
Method: Human Hodgkin's lymphoma cells L1236 were incubated for 3, 5 or 7 days in complete RPMI1640 and 10% FBS. The cells were plated at 3×10^5 cells/mL.
The effect was more pronounced after 7 days of incubation.
The results are illustrated in FIG. 12. The y-axis represent the normalized viability when compared to control cells incubated with 0.1% DMSO with no interferon or IBT added, adjusted at 100%. The cell viability was determined using CellTiter 96 Aqueous One Solution Cell Proliferation Assay (Promega). (CellTiter 96 uses a novel tetrazolium compound (MTS) and an electron coupling reagent, phenazine ethosulfate.)

SMILES: Cc1ccc(C(=O)Cn2c3c(sc2=N)CCCC3)cc1 [PFT-α]
- Effect on untreated CLL cells (spontaneous apoptosis) [1]: nearly equivalent effects
- % cyclized to IBT ([2]; 0 h): 5%
- % cyclized to IBT ([2]; 12 h): 47%
- % cyclized to IBT ([2]; 24 h): 69%
- % cyclized to IBT ([2]; 48 h): 92%
- Stability / ring closure in protic solvents and aqueous solution (in words) ([2]; protic solvents, room temperature, aqueous solution): unstable in aqueous solution under in vivo conditions; also recorded: begins cyclizing at room temperature immediately upon dissolution in protic solvents
- CLL survival / toxicity (viable cells by PI exclusion and MTT) [3]: dose-dependently reduced CLL survival

SMILES: Cc1ccc(-c2cn3c4c(sc3n2)CCCC4)cc1 [IBT]
- Effect on untreated CLL cells (spontaneous apoptosis) [1]: nearly equivalent effects
- Protective effect on CLL cells treated with F-AraA (fludarabine) ([1]; with fludarabine, compared with PFT-α): less protective effects
- Viability of the treated cells, visually verified at the end of the incubation [4]: > 95%
- Anti-proliferative / growth-inhibitory effect on L1236 cells (normalized viability) [5]: only a small anti-proliferative effect
- CLL survival / toxicity (viable cells by PI exclusion and MTT) [3]: non-toxic at concentrations up to 100 micromolar
